System: APPsw+/− mice
Assay: Human Aβ40 and Aβ42 levels in hippocampus and cortex by ELISA, chronic treatment of APPsw+/− mice
Type: in vivo
Details: 1 mg/kg per day i.p. for two months
Experimental: A-B, Aβ40 and Aβ42 levels in hippocampus (A) cortex (B) of APPsw^+/− mice treated with vehicle (filled square) or FPS2 (filled triangle). FPS2 (1 mg/kg per day) was administered intraperitoneally to mice for two months beginning at the age of 8 months. Values are means±s.e.m, n=5-6 per group.
In the chronic-treated mice, Aβ40 and Aβ42 levels in the hippocampus were reduced by about 85% and 90%, respectively, in the FPS2-treated mice compared to vehicle (FIG. 6A). Similarly, Aβ40 and Aβ42 levels in the cortex were reduced by about 70% and 80%, respectively (FIG. 6B).
Compounds were synthesized in parallel using semiautomated chemical reactions. Five commercially-available aromatic aldehydes were condensed in reductive amination reactions with five hydrophobic amines to form 25 secondary amines. Parallel acylation of these 25 secondary amines with five aromatic acyl chlorides provided the final 125-compound library of tertiary amides. The identity of compounds was verified by mass spectrometry (FIG. 9). Purity was assessed by reverse-phase gradient HPLC. Library members isolated with purity <95% were subjected to preparative HPLC purification prior to assay. • Animals. APPsw^+/− (Tg2576) mice were from Taconic Farms (Germantown, N.Y.). Mice were housed under standard conditions (12 hour light/dark cycle starting at 07:00 AM; 21±2° C.; 55±10% humidity) in solid-bottom cages on woodchip bedding. Mice were anesthetized by intraperitoneal injection with urethane (750 mg/kg) and α-chloralose (50 mg/kg). All procedures on mice were performed according to the NIH guidelines, which were approved by the University of Rochester's Committee on Animal Resources. • FPS2 chronic treatment of APPsw^+/− mice. APPsw^+/− mice (n=5-6 per group) were treated intraperitoneally with FPS2 (1 mg/kg per day) or saline for two months beginning at the age of 8 months. After two months of treatment, (i) the cerebral blood flow response to brain activation (whisker stimulation) was measured and (ii) behavioral tests including operant learning, novel object location (NOL), and novel object recognition (NOR) were performed. After these functional tests, the mice were sacrificed and their brains analyzed for Aβ40, Aβ42, and amyloid levels. • CBF response to brain activation. The CBF response to vibrissal stimulation in anesthetized APPsw^+/− mice was measured by using laser-doppler flowmetry (Transonic Systems, BLF 21 D). The tip of the laser-doppler probe was stereotaxically placed 0.5 mm above the dura of the cranial window. The right vibrissae were cut to about 5 mm and stimulated by gentle stroking at 3-4 Hz, for 1 min with a cotton-tip applicator. […] The time exploring the novel and familiar objects was scored by hand to provide discrimination. • Human Aβ40 and Aβ42. […]

Which results are given for `CC(CC(=O)NCCCN(C(=O)c1cc([N+](=O)[O-])cc([N+](=O)[O-])c1)c1ccccc1)CC(C)(C)C` (stereo not shown) [FPS2, 3,5-dinitro-N-phenyl-N-[3-[(3,5,5-trimethyl-1-oxohexyl)amino]propyl]-(9Cl)-benzamide]?
reduction of Aβ40 level in the cortex compared to vehicle: about 70%; reduction of Aβ40 level in the hippocampus compared to vehicle: about 85%; reduction of Aβ42 level in the cortex compared to vehicle: ~80%; reduction of Aβ42 level in the hippocampus compared to vehicle: ~90%

— US8778985B2, “Inhibiting amyloid-beta peptide/rage interaction at the blood-brain barrier” (The University of Rochester, priority 2006, dated 2014)
